Molecular target: P2Y purinoceptor 1 (Homo sapiens, UniProt P47900)
Experiment: pA2 value was evaluated against P2Y purinoceptor 1

P2Y purinoceptor 1, sequence (P47900 whole entry): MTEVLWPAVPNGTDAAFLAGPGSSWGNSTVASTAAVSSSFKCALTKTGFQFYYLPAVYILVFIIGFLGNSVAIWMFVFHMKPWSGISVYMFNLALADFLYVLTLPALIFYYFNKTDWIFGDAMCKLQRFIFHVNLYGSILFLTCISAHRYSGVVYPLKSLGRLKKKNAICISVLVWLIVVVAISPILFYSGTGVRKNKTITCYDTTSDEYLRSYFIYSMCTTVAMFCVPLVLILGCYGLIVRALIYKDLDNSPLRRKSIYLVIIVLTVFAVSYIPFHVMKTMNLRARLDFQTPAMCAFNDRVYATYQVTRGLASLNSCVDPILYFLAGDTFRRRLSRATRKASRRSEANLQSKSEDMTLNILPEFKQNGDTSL

Kd: 77.6 nM
SMILES: CNc1nc(C)nc2c1ncn2C1CC(OP(=O)(O)O)C(COP(=O)(O)O)O1 (stereo unspecified)
